In BindingDB's records for doi:10.1021/jm0209984 (Universit&#224, 2003) one finds EC50 data, which are given here for 27 molecules.

The experiment in a line: Concentration required to achieve 50% protection of MT-4 cell from the HIV-1 induced cytopathogenicity was determined by the MTT method.
Molecule `O=C(c1ccc(Cl)cc1Cl)N(C(=S)OCCOc1ccccc1)c1ccccc1` [(2,4-Dichloro-benzoyl)-phenyl-thiocarbamic acid O-(2-phenoxy-ethyl) ester] yielded an EC50 of 11.6 µM. This counts as double-digit micromolar. The figure for `O=C1c2ccccc2C(=O)N1CCOC(=S)N(C(=O)c1cccs1)c1ccccc1Cl` [(2-Chloro-phenyl)-(thiophene-2-carbonyl)-thiocarbamic acid O-[2-(1,3-dioxo-1,3-dihydro-isoindol-2-yl)-ethyl] ester] is 11 µM.

In the case of `CCc1ccccc1N(C(=O)c1cccs1)C(=S)OCCN1C(=O)c2ccccc2C1=O` [(2-Ethyl-phenyl)-(thiophene-2-carbonyl)-thiocarbamic acid O-[2-(1,3-dioxo-1,3-dihydro-isoindol-2-yl)-ethyl] ester], the EC50 was found to be 11 µM. The figure for `COc1ccccc1N(C(=O)c1cccs1)C(=S)OCCN1C(=O)c2ccccc2C1=O` [(2-Methoxy-phenyl)-(thiophene-2-carbonyl)-thiocarbamic acid O-[2-(1,3-dioxo-1,3-dihydro-isoindol-2-yl)-ethyl] ester] is 11 µM; for `CC(COc1ccccc1)OC(=S)N(C(=O)COc1ccccc1)c1ccccc1` (configuration not stated) [(2-Phenoxy-acetyl)-phenyl-thiocarbamic acid O-(1-methyl-2-phenoxy-ethyl) ester] it is 1.4 µM; for `O=C(COc1ccccc1)N(C(=S)OCCOc1ccccc1)c1ccccc1` [(2-Phenoxy-acetyl)-phenyl-thiocarbamic acid O-(2-phenoxy-ethyl) ester] it is 6 µM. The figure for `O=C(c1cc(Cl)cc(Cl)c1)N(C(=S)OCCOc1ccccc1)c1ccccc1` [(3,5-Dichloro-benzoyl)-phenyl-thiocarbamic acid O-(2-phenoxy-ethyl) ester] is 8.8 µM.

`CC(=O)c1cccc(N(C(=O)c2cccs2)C(=S)OCCN2C(=O)c3ccccc3C2=O)c1` [(3-Acetyl-phenyl)-(thiophene-2-carbonyl)-thiocarbamic acid O-[2-(1,3-dioxo-1,3-dihydro-isoindol-2-yl)-ethyl] ester]: the EC50 amounted to 6 µM. The EC50 values of the last two molecules are within 1.5-fold of each other. The molecule `O=C1c2ccccc2C(=O)N1CCOC(=S)N(C(=O)c1cccs1)c1cccc(Br)c1` [(3-Bromo-phenyl)-(thiophene-2-carbonyl)-thiocarbamic acid O-[2-(1,3-dioxo-1,3-dihydro-isoindol-2-yl)-ethyl] ester] returned an EC50 of 1.2 µM.

`CC(COc1ccccc1)OC(=S)N(C(=O)c1cccs1)c1cccc(Cl)c1` (configuration not stated) [(3-Chloro-phenyl)-(thiophene-2-carbonyl)-thiocarbamic acid O-(1-methyl-2-phenoxy-ethyl) ester] had an EC50 of 11 µM. The figure for `O=C1c2ccccc2C(=O)N1CCOC(=S)N(C(=O)c1cccs1)c1cccc(Cl)c1` [(3-Chloro-phenyl)-(thiophene-2-carbonyl)-thiocarbamic acid O-[2-(1,3-dioxo-1,3-dihydro-isoindol-2-yl)-ethyl] ester] is 6 µM. The same measure for `O=C1c2ccccc2C(=O)N1CCOC(=S)N(C(=O)c1cccs1)c1cccc(F)c1` [(3-Fluoro-phenyl)-(thiophene-2-carbonyl)-thiocarbamic acid O-[2-(1,3-dioxo-1,3-dihydro-isoindol-2-yl)-ethyl] ester]: 11 µM; for `COc1cccc(N(C(=O)c2cccs2)C(=S)OCCN2C(=O)c3ccccc3C2=O)c1` [(3-Methoxy-phenyl)-(thiophene-2-carbonyl)-thiocarbamic acid O-[2-(1,3-dioxo-1,3-dihydro-isoindol-2-yl)-ethyl] ester]: 3.5 µM; for `CC(COc1ccccc1)OC(=S)N(C(=O)c1cccc([N+](=O)[O-])c1)c1ccccc1` (configuration not stated) [(3-Nitro-benzoyl)-phenyl-thiocarbamic acid O-(1-methyl-2-phenoxy-ethyl) ester]: 3.6 µM. The same measure for `O=C1c2ccccc2C(=O)N1CCOC(=S)N(C(=O)c1cccs1)c1cccc([N+](=O)[O-])c1` [(3-Nitro-phenyl)-(thiophene-2-carbonyl)-thiocarbamic acid O-[2-(1,3-dioxo-1,3-dihydro-isoindol-2-yl)-ethyl] ester]: 0.38 µM. `O=C(c1ccc(Cl)c([N+](=O)[O-])c1)N(C(=S)OCCOc1ccccc1)c1ccccc1` [(4-Chloro-3-nitro-benzoyl)-phenyl-thiocarbamic acid O-(2-phenoxy-ethyl) ester]: the EC50 amounted to 7.6 µM.

`O=C(c1ccc(Cl)cc1)N(C(=S)OCCOc1ccccc1)c1ccccc1` [(4-Chloro-benzoyl)-phenyl-thiocarbamic acid O-(2-phenoxy-ethyl) ester] came in with an EC50 of 10.3 µM. The same measure for `O=C(c1ccc(Cl)cc1)N(C(=S)OCCc1ccccc1)c1ccccc1` [(4-Chloro-benzoyl)-phenyl-thiocarbamic acid O-phenethyl ester]: 4 µM; for `CC(COc1ccccc1)OC(=S)N(C(=O)c1cccs1)c1ccc(Cl)cc1` (configuration not stated) [(4-Chloro-phenyl)-(thiophene-2-carbonyl)-thiocarbamic acid O-(1-methyl-2-phenoxy-ethyl) ester]: 11 µM; for `CCN(CC)c1ccc(N(C(=O)c2cccs2)C(=S)OCCN2C(=O)c3ccccc3C2=O)cc1` [(4-Diethylamino-phenyl)-(thiophene-2-carbonyl)-thiocarbamic acid O-[2-(1,3-dioxo-1,3-dihydro-isoindol-2-yl)-ethyl] ester]: 11 µM. The same measure for `CCc1ccc(N(C(=O)c2ccco2)C(=S)OCCN2C(=O)c3ccccc3C2=O)cc1` [(4-Ethyl-phenyl)-(furan-2-carbonyl)-thiocarbamic acid O-[2-(1,3-dioxo-1,3-dihydro-isoindol-2-yl)-ethyl] ester]: 0.03 µM; for `O=C1c2ccccc2C(=O)N1CCOC(=S)N(C(=O)c1cccs1)c1ccc(F)cc1` [(4-Fluoro-phenyl)-(thiophene-2-carbonyl)-thiocarbamic acid O-[2-(1,3-dioxo-1,3-dihydro-isoindol-2-yl)-ethyl] ester]: 0.1 µM; for `O=C1c2ccccc2C(=O)N1CCOC(=S)N(C(=O)c1cccs1)c1ccc(I)cc1` [(4-Iodo-phenyl)-(thiophene-2-carbonyl)-thiocarbamic acid O-[2-(1,3-dioxo-1,3-dihydro-isoindol-2-yl)-ethyl] ester]: 0.01 µM. The same measure for `Cc1ccc(C(=O)N(C(=S)OCCOc2ccccc2)c2ccccc2)cc1` [(4-Methyl-benzoyl)-phenyl-thiocarbamic acid O-(2-phenoxy-ethyl) ester]: 9.9 µM; for `CC(COc1ccccc1)OC(=S)N(C(=O)c1cccs1)c1ccc([N+](=O)[O-])cc1` (configuration not stated) [(4-Nitro-phenyl)-(thiophene-2-carbonyl)-thiocarbamic acid O-(1-methyl-2-phenoxy-ethyl) ester]: 6 µM; for `O=C1c2ccccc2C(=O)N1CCOC(=S)N(C(=O)c1cccs1)c1ccc([N+](=O)[O-])cc1` [(4-Nitro-phenyl)-(thiophene-2-carbonyl)-thiocarbamic acid O-[2-(1,3-dioxo-1,3-dihydro-isoindol-2-yl)-ethyl] ester]: 0.01 µM. The molecule `O=C1c2ccccc2C(=O)N1CCOC(=S)N(C(=O)c1ccco1)c1ccc([N+](=O)[O-])cc1` [(Furan-2-carbonyl)-(4-nitro-phenyl)-thiocarbamic acid O-[2-(1,3-dioxo-1,3-dihydro-isoindol-2-yl)-ethyl] ester] registered an EC50 of 0.008 µM.
